Test results published in patent publication US9102648B1, “Bioavailable diacylhydrazine ligands for modulating the expression of exogenous genes via an ecdysone receptor complex” (Intrexon Corporation, priority 2003, dated 2015).
In brackets after ≈: the same amount, converted by molar mass.

Assays:
[1] = Determination of water solubility (de-ionized water, LC/MS); conditions: kinetic from dmso stock
Experimental: (§1) Aqueous solutions are prepared as follows in triplicate: 50 μl of a 10,000 ppm solution (2,000 μg of solid dissolved in 200 μl of methanol) of the substrate in methanol or DMSO is added to 1 mL of de-ionized water in a 2 dram or smaller vial with magnetic stirring. Stirring is continued overnight at ambient temperature. The slurry is taken up into a syringe with a luer tip. The contents are passed through a new 13 mm 0.2 ρM Acrodisc filter (tuffryn or glass fiber) into an autosampler bottle. For preparation of calibration standard solutions: dilutions of the 10,000 ppm solution were prepared at 10, 5, 1, 0.5, and 0.2 ppm. […] For more soluble materials, dilution of the samples into this range is preferable to increasing the calibration range because the non-linearity of the response results in less useful calibration curves. However a shift in the range of calibration standards is required for very insoluble compounds.
(§2) Chromatography of the samples was then preformed. For most diacylhydrazines the following conditions were adequate for the measurement. Other columns and gradients may be substituted as appropriate.
(§3) Analysis of the test samples is conducted as follows: Each solubility replicate is analyzed in duplicate. […] Standard curves are obtained from duplicate injections of the standards. The concentration of the substrate is determined by calculation from the equation relating concentration and response.

physchem [2] = conditions: pH 7.4, aqueous buffer, thermodynamic from solid
Experimental: Equilibrium solubility was measured in pH 7.4 aqueous buffer. The buffer was prepared by adjusting the pH of a 0.07 M solution of NaH2PO4 to pH 7.4 with 10 N NaOH. […] At least 1 mg of powder was combined with 1 mL of buffer to make >1 mg/mL mixture. These samples were shaken for ≧2 hours and left to stand overnight at room temperature. The samples were then filtered through a 0.45-μm Nylon syringe filter that was first saturated with the sample. The filtrate was sampled twice, consecutively. The filtrate was assayed by HPLC against standards prepared in methanol.

physchem [3] = conditions: water, kinetic from dmso stock
Experimental: as §1, §2, §3

[4] = system: mutated ecdysone receptor-based gene switch; assay: In vivo SEAP induction, ligand administered in rodent chow; parameters: species or system C57BL/6 mouse; conditions: feed 2 g/kg ad libitum
Experimental: Applicants' ligands are useful in various applications including gene therapy, expression of proteins of interest in host cells, production of transgenic organisms, and cell-based assays. In vivo induction of a reporter enzyme with various ligands of the present invention was evaluated in a C57BL/6 mouse model system containing a gene switch.
Each element of the gene switch was on a separate plasmid. Receptor expression was under the control of a CMV promoter (SEQ ID NO: 15). Induction was evaluated by the amount of reporter protein expressed in the presence of ligand.
SEAP expression in serum of mice was evaluated after electroporation of the gene switch into mouse quadriceps. Mice were anesthetized with 2 μL/g of a mixture of ketamine (100 mg/mL) and xylazine (20 mg/mL). Animals were then shaved, DNA vectors injected into the muscle in a volume of 2×50 μL polyglutamic acid (12 mg/mL water), electrode conductivity gel applied, and an electrode caliber (1 cm×1 cm; model 384) was placed on hind leg. The muscle was electroporated with 200 V/cm, 8 times, for 20 msec/pulse, at 1 sec time intervals. The transverse electrical field direction was reversed after the animals received half of the pulses. Electroporation was performed with an ECM 830 electroporator from BTX Molecular Delivery Systems.
In some experiments mice received an intraperitoneal injection (IP) of 2.6 μmol of ligand in 50 μL of DMSO 3 days after electroporation of the gene switch. In other experiments the concentration of ligand was decrease to 26 nmol/50 μL of DMSO/mouse. SEAP expression was evaluated 2-11 days after ligand administration. In other experiments ligand was administered in rodent chow. The chow was prepared by dissolving 2 g of ligand in 20 mL of acetone and adding it to 1 kg of LabDiet 5010 autoclavable chow from Purina Mills. This was thoroughly mixed in a Hobart mixer and then mixed for an additional 15 min in a Cross Blend mixer. Animals received chow ad libitum for 1, 2, or 3 days. All values are the average from four animals. Background SEAP in sera from animals treated with vector alone without ligand addition was 0-11 ng/mL serum.
Mouse serum was obtained by centrifugation of blood acquired by retroorbital bleeding with a small glass capillary tube. SEAP quantification was determined using a Clontech Great Escape chemiluminescence kit and by comparison with the Clontech SEAP standard.
Table 11: Induction of SEAP in C57BL/6 mice with GS™-E ligand or RG-103309 administered in rodent chow. SEAP expression in serum of mice was evaluated after electroporation of the gene expression cassettes into mouse quadriceps. Mice received GS™-E ligand or RG-103309 in their feed (2 g/kg) 3 days after electroporation. Feed was administered ad libitum for 1, 2, or 3 days. After each interval ligand-treated feed was removed and animals received untreated feed. Values are the average from 4 animals.

## COc1cc(C(=O)N(NC(=O)c2ccc3c(c2C)OCCO3)C(C)(C)C)cc(OC)c1O [RG-115009, 4-Hydroxy-3,5-dimethoxy-benzoic acid N-tert-butyl-N′-(5-methyl-2,3-dihydro-benzo[1,4]dioxine-6-carbonyl)-hydrazide]
[1]
  solubility kinetic: 30.4 µM (≈ 13.5 µg/mL)

## Cc1cc(C)cc(C(=O)N(NC(=O)c2ccc3c(c2C)OCCO3)C(C)(C)C)c1 [RG-102317, N-(5-methyl-1,4-benzodioxan-6-carbonyl)-N′-(tert-butyl)-N′-(3,5-dimethylbenzoyl)hydrazine]
Physchem [2]
  solubility: 4.3 µg/mL (≈ 10.8 µM)
Physchem [3]
  solubility kinetic: 10.1 µM (≈ 4 µg/mL)

## COc1cc(C(=O)N(NC(=O)c2ccc3c(c2C)OCCO3)C(C)(C)C)cc(OC)c1C [RG-115637, 5-Methyl-2,3-dihydro-benzo[1,4]dioxine-6-carboxylic acid N′-tert-butyl-N′-(3,5-dimethoxy-4-methyl-benzoyl)-hydrazide]
[1]
  solubility kinetic: 13.7 µM (≈ 6.06 µg/mL)

## CCc1ccc(C(=O)NN(C(=O)c2cc(C)cc(C)c2)C(C)(C)C)c(F)c1 [RG-101523, 3,5-Dimethyl-benzoic acid N-tert-butyl-N′-(4-ethyl-2-fluoro-benzoyl)-hydrazide]
[1]
  solubility kinetic: 13.4 µM (≈ 4.96 µg/mL)

## CCC(N(NC(=O)c1cccc(C)c1C)C(=O)c1cc(C)cc(C)c1)C(C)(C)C (stereo not drawn) [RG-103309, 3,5-dimethyl-benzoic acid N′-(2,3-dimethyl-benzoyl)-N-(1-ethyl-2,2-dimethyl-propyl)-hydrazide]
[4]; dose period 1 day
  Secreted Alkaline Phosphatase Day 2: 9,003 ng/ml mouse sera
  Secreted Alkaline Phosphatase Day 3: 14,850 ng/ml mouse sera
  Secreted Alkaline Phosphatase Day 7: 5,172 ng/ml mouse sera
[4]; dose period 2 day
  Secreted Alkaline Phosphatase Day 2: 6,971 ng/ml mouse sera
  Secreted Alkaline Phosphatase Day 3: 16,518 ng/ml mouse sera
  Secreted Alkaline Phosphatase Day 7: 7,460 ng/ml mouse sera
[4]; dose period 3 day
  Secreted Alkaline Phosphatase Day 2: 11,126 ng/ml mouse sera
  Secreted Alkaline Phosphatase Day 3: 20,373 ng/ml mouse sera
  Secreted Alkaline Phosphatase Day 7: 11,549 ng/ml mouse sera
[1]
  solubility kinetic: 2.9 µM (≈ 1.14 µg/mL)

## COc1ccc(C(=O)N(NC(=O)c2ccc3c(c2C)OCCO3)C(C)(C)C)c(OC)n1 [RG-115517, 2,6-dimethoxy-nicotinic acid N-tert-butyl-N′-(5-methyl-2,3-dihydro-benzo[1,4]dioxine-6-carbonyl)-hydrazide]
[1]
  solubility kinetic: 36.7 µM (≈ 15.8 µg/mL)

## CCc1c(OC)cccc1C(=O)NN(C(=O)c1cc(C)cc(C)c1)C(C)(C)C [RG-102240, N-(3-methoxy-2-ethylbenzoyl)-N′-(3,5-dimethylbenzoyl)-N′-tert-butylhydrazine]
[4]; dose period 1 day
  Secreted Alkaline Phosphatase Day 2: 7,302 ng/ml mouse sera
  Secreted Alkaline Phosphatase Day 3: 7,670 ng/ml mouse sera
  Secreted Alkaline Phosphatase Day 7: 3,784 ng/ml mouse sera
[4]; dose period 2 day
  Secreted Alkaline Phosphatase Day 2: 13,046 ng/ml mouse sera
  Secreted Alkaline Phosphatase Day 3: 15,831 ng/ml mouse sera
  Secreted Alkaline Phosphatase Day 7: 8,816 ng/ml mouse sera
[4]; dose period 3 day
  Secreted Alkaline Phosphatase Day 2: 8,064 ng/ml mouse sera
  Secreted Alkaline Phosphatase Day 3: 11,392 ng/ml mouse sera
  Secreted Alkaline Phosphatase Day 7: 8,372 ng/ml mouse sera
[1]
  solubility kinetic: 9.8 µM (≈ 3.75 µg/mL)

## Cc1c(C(=O)NN(C(=O)c2cc(F)c(F)c(F)c2)C(C)(C)C)ccc2c1CCCO2 [RG-115575, 3,4,5-Trifluoro-benzoic acid N-tert-butyl-N′-(5-methyl-chroman-6-carbonyl)-hydrazide]
[1]
  solubility kinetic: 21.6 µM (≈ 9.08 µg/mL)
